Experiment [1] deals with T1, purified wild type MGL (wt-MGLL 6H-11-313) (Homo sapiens, UniProt Q99685).
T1 construct: purified wild type MGL (wt-MGLL 6H-11-313)
T1 sequence (Q99685 1-303): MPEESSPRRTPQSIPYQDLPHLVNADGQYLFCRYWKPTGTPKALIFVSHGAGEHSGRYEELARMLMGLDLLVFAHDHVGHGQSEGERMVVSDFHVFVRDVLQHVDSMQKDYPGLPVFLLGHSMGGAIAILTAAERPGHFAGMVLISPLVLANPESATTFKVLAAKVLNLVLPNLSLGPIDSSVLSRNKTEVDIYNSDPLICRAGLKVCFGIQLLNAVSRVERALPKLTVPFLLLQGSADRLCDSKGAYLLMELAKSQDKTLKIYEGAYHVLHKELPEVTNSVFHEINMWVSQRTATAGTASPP
Put plainly: MGL enzyme activity assay (4MU-B cleavage), wild type MGL. The following applies: 10 μM 4MU-B, 5 nM enzyme, 37° C., read-out: MGL wild type inh IC50. The format is biochemical. Put shortly: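 Enzyme (5 nM final) cleaved 4MU-B (10 μM final) in 20 mM PIPES pH 7.0 with 150 mM NaCl and 0.001% Tween 20. Compounds were tested at 17 to 0.0003 μM final. Fluorescence (ex 335/em 440 nm) was monitored at 37° C for 5 min, and IC50 was fitted from fractional activity versus inhibitor concentration.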

For the next experiment, the target named is T2, mutant MGL (Homo sapiens, UniProt Q99685, L169S/L176S).
T2 construct: purified mutant MGL (mut-MGLL 11-313 L179S L186S)
T2 sequence (Q99685 1-303 L169S/L176S): T1 sequence (Q99685 1-303) with L169S, L176S
Put plainly: MGL ThermoFluor assay - mutant. The format is binding. Put shortly:
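Thermal shift binding with 0.07 mg/ml L169S/L176S MGL, 100 μM 1,8-ANS, 200 mM NaCl, 0.001% Tween-20, 50 mM PIPES pH 7.0. Heated 40–90 °C at 1 °C/min, fluorescence (em 500 nm) tracked to give Tm; Kd fitted from 11-point concentration–Tm response, qKd when stocks quantified by qNMR.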

In another experiment the target is T3, MGL (Rattus norvegicus, UniProt Q8R431).
T3 construct: one g rat brain was homogenized; from tissue; host or cells: rat brain homogenate
T3 sequence (Q8R431 1-303): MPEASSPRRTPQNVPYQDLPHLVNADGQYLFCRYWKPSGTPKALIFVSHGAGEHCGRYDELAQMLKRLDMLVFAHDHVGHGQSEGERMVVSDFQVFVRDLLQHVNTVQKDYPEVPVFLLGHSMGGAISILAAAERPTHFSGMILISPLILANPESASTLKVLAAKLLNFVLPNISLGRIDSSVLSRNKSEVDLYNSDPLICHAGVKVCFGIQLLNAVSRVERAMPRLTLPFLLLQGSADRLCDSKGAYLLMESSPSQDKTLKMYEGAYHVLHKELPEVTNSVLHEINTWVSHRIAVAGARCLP
In words: 2-AG accumulation assay in rat brain homogenate. The format is biochemical. Conditions: compound @1 μM, read-out: Rat Brain 2AG % VehCntrl (%) @1 μM. How it is done: After a 15-min incubation time at 37° C., CaCl2 (final concentration=10 mM) was added and then incubated for 15 min at 37° C. in a total volume of 5 mL. The reactions were stopped with 6 mL organic solvent extraction solution of 2:1 chloroform/methanol. Accumulated 2-AG in the organic phase was measured by a HPLC/MS method, according to the following equation: percent vehicle=(2-AG accumulation in the presence of compound/2-AG accumulation in vehicle)×100.

Where [2] appears, read: 0.07 mg/ml mutant MGL, pH=7.0, read-out: MGL mutant ThermoFluor Kd.
[3] abbreviates: compound concentration measured by qNMR, read-out: MGL mutant ThermoFluor qKd (using qNMR conc.).

Experimental findings from patent US8513423B2 (Janssen Pharmaceutica, NV, priority 2010, dated 2013) are described below.

Where a chain is given by its changes, count along the chain named. Read-outs that look alike come from different tables or passages of the source.

For the compound `O=C(c1ccc[nH]1)N1CCC(C2CN(C(=O)c3ccc(-c4ccccc4)cc3F)C2)CC1` [Cpd 21, 4-{1-[(3-Fluorobiphenyl-4-yl)carbonyl]azetidin-3-yl}-1-(1H-pyrrol-2-ylcarbonyl)piperidine], the IC50 in experiment [1] was 12.4 nM. In addition, the Kd on mutant MGL (setting [2]) was 28.6 nM. Besides, on MGL, the 2-AG accumulation, percent of vehicle control at 1 µM was 287%.

With `O=C(c1ccc(-c2cccc(C(F)(F)F)c2)cc1)N1CC(C2CCN(C(=O)c3ccc[nH]3)CC2)C1` [Cpd 22, 1-(1H-Pyrrol-2-ylcarbonyl)-4-(1-{[3′-(trifluoromethyl)biphenyl-4-yl]carbonyl}azetidin-3-yl)piperidine], in experiment [1], the half-maximal inhibitory concentration (IC50) is 8 nM. On mutant MGL (setting [2]), the Kd is 6.6 nM. At MGL, the 2-AG accumulation, percent of vehicle control at 1 µM turned out to be 470%.

Regarding `O=C(c1ccc(-c2ccc(C(F)(F)F)s2)cc1)N1CC(C2CCN(C(=O)c3ccc[nH]3)CC2)C1` [Cpd 24, 1-(1H-Pyrrol-2-ylcarbonyl)-4-[1-({4-[5-(trifluoromethyl)thiophen-2-yl]phenyl}carbonyl)azetidin-3-yl]piperidine], the 50% inhibitory concentration (IC50) in experiment [1] turned out to be 37.9 nM. Further, at mutant MGL (setting [2]), the Kd is 19.9 nM. The 2-AG accumulation, percent of vehicle control at 1 µM on MGL was determined as 298%.

As for `Cc1c(C(=O)N2CC(C3CCN(C(=O)c4ccc[nH]4)CC3)C2)sc2cc(C(F)(F)F)ccc12` [Cpd 26, 4-(1-{[3-Methyl-6-(trifluoromethyl)-1-benzothiophen-2-yl]carbonyl}azetidin-3-yl)-1-(1H-pyrrol-2-ylcarbonyl)piperidine], the IC50 in experiment [1] is < 5 nM. Besides, at mutant MGL (setting [2]), the Kd is 3.6 nM. Further, the 2-AG accumulation, percent of vehicle control at 1 µM at MGL was determined as 303%.

Turning to `O=C(c1ccc(Cc2ccc(C(F)(F)F)cc2)cc1)N1CC(C2CCN(C(=O)c3nccs3)CC2)C1` [Cpd 27, 1-(1,3-Thiazol-2-ylcarbonyl)-4-[1-({4-[4-(trifluoromethyl)benzyl]phenyl}carbonyl)azetidin-3-yl]piperidine], the concentration for half-maximal inhibition (IC50) in experiment [1] came out at 9 nM. Also, the Kd at mutant MGL (setting [2]) stood at 13.3 nM. The 2-AG accumulation, percent of vehicle control at 1 µM on MGL worked out at 634%.

As to `O=C(c1ccc2nc(-c3ccccc3)oc2c1)N1CC(C2CCN(C(=O)c3nccs3)CC2)C1` [Cpd 28, 2-Phenyl-6-({3-[1-(1,3-thiazol-2-ylcarbonyl)piperidin-4-yl]azetidin-1-yl}carbonyl)-1,3-benzoxazole], in experiment [1], the IC50 was 16.4 nM. In addition, the Kd on mutant MGL (setting [2]) was determined as 11.1 nM. In addition, the 2-AG accumulation, percent of vehicle control at 1 µM at MGL stood at 777%.

Consider `O=C(c1ccc2c(ccn2-c2ccc(F)cc2)c1)N1CC(C2CCN(C(=O)c3nccs3)CC2)C1` [Cpd 30, 1-(4-Fluorophenyl)-5-({3-[1-(1,3-thiazol-2-ylcarbonyl)piperidin-4-yl]azetidin-1-yl}carbonyl)-1H-indole], for which the IC50 in experiment [1] is < 5 nM. Also, the Kd on mutant MGL (setting [2]) came out at 2.5 nM. In addition, the 2-AG accumulation, percent of vehicle control at 1 µM on MGL turned out to be 443%.

For `O=C(c1ccc2c(ccn2-c2ccc(C(F)(F)F)cc2)c1)N1CC(C2CCN(C(=O)c3nccs3)CC2)C1` [Cpd 31, 5-({3-[1-(1,3-Thiazol-2-ylcarbonyl)piperidin-4-yl]azetidin-1-yl}carbonyl)-1-[4-(trifluoromethyl)phenyl]-1H-indole], the IC50 in experiment [1] was < 5 nM. Also, the Kd on mutant MGL (setting [2]) was determined as 2.6 nM. The 2-AG accumulation, percent of vehicle control at 1 µM on MGL came to 779%.

With `O=C(c1ccc(Cc2ccc(C(F)(F)F)cc2)cc1)N1CC(C2CCN(C(=O)c3cscn3)CC2)C1` [Cpd 33, 1-(1,3-Thiazol-4-ylcarbonyl)-4-[1-({4-[4-(trifluoromethyl)benzyl]phenyl}carbonyl)azetidin-3-yl]piperidine], the IC50 in experiment [1] was < 5 nM. At mutant MGL (setting [2]), the Kd was determined as 62.6 nM. In addition, the 2-AG accumulation, percent of vehicle control at 1 µM at MGL turned out to be 696%.

For the compound `O=C(c1ccc2nc(-c3ccccc3)oc2c1)N1CC(C2CCN(C(=O)c3cscn3)CC2)C1` [Cpd 34, 2-Phenyl-6-({3-[1-(1,3-thiazol-4-ylcarbonyl)piperidin-4-yl]azetidin-l-yl}carbonyl)-1,3-benzoxazole], the 50% inhibitory concentration (IC50) in experiment [1] is 54.4 nM. The Kd at mutant MGL (setting [2]) worked out at 198 nM. Besides, at MGL, the 2-AG accumulation, percent of vehicle control at 1 µM was determined as 517%.

As to `O=C(c1cscn1)N1CCC(C2CN(C(=O)c3sc4cc(C(F)(F)F)ccc4c3Cl)C2)CC1` [Cpd 35, 4-(1-{[3-Chloro-6-(trifluoromethyl)-1-benzothiophen-2-yl]carbonyl}azetidin-3-yl)-1-(1,3-thiazol-4-ylcarbonyl)piperidine], the IC50 in experiment [1] was < 5 nM. Moreover, the Kd at mutant MGL (setting [2]) is 2.5 nM; on mutant MGL (setting [3]), 5.7 nM. Further, the 2-AG accumulation, percent of vehicle control at 1 µM on MGL was determined as 724%.

Consider `O=C(c1ccc2c(ccn2-c2ccc(F)cc2)c1)N1CC(C2CCN(C(=O)c3cscn3)CC2)C1` [Cpd 36, 1-(4-Fluorophenyl)-5-({3-[1-(1,3-thiazol-4-ylcarbonyl)piperidin-4-yl]azetidin-1-yl}carbonyl)-1H-indole], for which the IC50 in experiment [1] was < 5 nM. Further, at mutant MGL (setting [2]), the Kd stood at 22.5 nM. In addition, on MGL, the 2-AG accumulation, percent of vehicle control at 1 µM is 507%.

On to `O=C(c1ccc2c(ccn2-c2ccc(C(F)(F)F)cc2)c1)N1CC(C2CCN(C(=O)c3cscn3)CC2)C1` [Cpd 37, 5-({3-[1(1,3 -Thiazol-4-ylcarbonyl)piperidin-4-yl]azetidin-1-yl}carbonyl)-1-[4-(trifluoromethyl)phenyl]-1H-indole], for which the half-inhibitory concentration (IC50) in experiment [1] is < 5 nM. On mutant MGL (setting [2]), the Kd worked out at 16 nM. For the same compound, the 2-AG accumulation, percent of vehicle control at 1 µM on MGL stood at 163%.

Take `O=C(c1ccc2c(ccn2-c2ccc(F)c(F)c2)c1)N1CC(C2CCN(C(=O)c3cscn3)CC2)C1` [Cpd 38]: the IC50 in experiment [1] amounted to 5 nM. The Kd at mutant MGL (setting [2]) was 15.5 nM. Besides, at MGL, the 2-AG accumulation, percent of vehicle control at 1 µM stood at 425%.

For the compound `O=C(c1ccc(Cc2ccc(C(F)(F)F)cc2)cc1)N1CC(C2CCN(C(=O)c3ccc[nH]3)CC2)C1` [Cpd 39, 1-(1H-Pyrrol-2-ylcarbonyl)-4-[1-({4-[4-(trifluoromethyl)benzyl]phenyl}carbonyl)azetidin-3-yl]piperidine], the 50% inhibitory concentration (IC50) in experiment [1] was < 5 nM. Further, on mutant MGL (setting [3]), the Kd worked out at 48.9 nM. Further, the 2-AG accumulation, percent of vehicle control at 1 µM on MGL is 371%.

In the case of `O=C(c1ccc2nc(-c3ccccc3)oc2c1)N1CC(C2CCN(C(=O)c3ccc[nH]3)CC2)C1` [Cpd 40, 2-Phenyl-6-({3-[1-(1H-pyrrol-2-ylcarbonyl)piperidin-4-yl]azetidin-1-yl}carbonyl)-1,3-benzoxazole], the 50% inhibitory concentration (IC50) in experiment [1] was found to be 9 nM. For the same compound, at mutant MGL (setting [3]), the Kd worked out at 94.6 nM. Besides, the 2-AG accumulation, percent of vehicle control at 1 µM on MGL was 361%.

Turning to `O=C(c1ccc[nH]1)N1CCC(C2CN(C(=O)c3sc4cc(C(F)(F)F)ccc4c3Cl)C2)CC1` [Cpd 41, 4-(1-{[3-Chloro-6-(trifluoromethyl)-1-benzothiophen-2-yl]carbonyl}azetidin-3-yl)-1-(1H-pyrrol-2-ylcarbonyl)piperidine], the 50% inhibitory concentration (IC50) in experiment [1] was < 5 nM. Besides, the Kd worked out at 4.1 nM on mutant MGL (setting [2]) and 3.1 nM on mutant MGL (setting [3]). On MGL, the 2-AG accumulation, percent of vehicle control at 1 µM worked out at 272%.

Turning to `O=C(c1ccc2c(ccn2-c2ccc(F)cc2)c1)N1CC(C2CCN(C(=O)c3ccc[nH]3)CC2)C1` [Cpd 42, 1-(4-Fluorophenyl)-5-({3-[1-(1H-pyrrol-2-ylcarbonyl)piperidin-4-yl]azetidin-1-yl}carbonyl)-1H-indole], the IC50 in experiment [1] is < 5 nM. The Kd at mutant MGL (setting [3]) is 24.5 nM. The 2-AG accumulation, percent of vehicle control at 1 µM on MGL was determined as 498%.
